Measured values reported in PubChem BioAssay AID256 (DTP/NCI, 2004).
“And” between values parts separate entries of the source, which are not always exact repeats. Equal values may be shown once. Toxic doses and inconclusive results are not listed. Rule for the calls: active = survival T/C of 150% or more; inactive = T/C below 125% in these data.

Test system: CD2F1 mice, L1210 leukemia ip, survival T/C
Assay: NCI In Vivo Anticancer Drug Screen. Data for tumor model L1210 Leukemia (intraperitoneal) in CD2F1 (CDF1) mice
Conditions: higher = longer survival
In short: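 Read-out first: treated-group measurement over vehicle-control measurement, expressed as a ratio. Animals bore a transplanted tumor line and were dosed with compound or vehicle.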

[1] = endpoint: mean survival time, dose: 50.0 mg/kg/injection, schedule: Q04DX003 (ip), vehicle: saline with Tween-80
[2] = endpoint: mean survival time, dose: 100.0 mg/kg/injection, schedule: Q04DX003 (ip), vehicle: saline with Tween-80
[3] = endpoint: mean survival time, dose: 200.0 mg/kg/injection, schedule: Q04DX003 (ip), vehicle: saline with Tween-80
[4] = endpoint: mean survival time, dose: 6.25 mg/kg/injection, schedule: Q01DX009 (ip), vehicle: Klucel (hydroxypropylcellulose) (HPC)
[5] = endpoint: mean survival time, dose: 12.5 mg/kg/injection, schedule: Q01DX009 (ip), vehicle: Klucel (hydroxypropylcellulose) (HPC)
[6] = endpoint: mean survival time, dose: 25.0 mg/kg/injection, schedule: Q01DX009 (ip), vehicle: Klucel (hydroxypropylcellulose) (HPC)
[7] = endpoint: mean survival time, dose: 50.0 mg/kg/injection, schedule: Q01DX009 (ip), vehicle: Klucel (hydroxypropylcellulose) (HPC)
[8] = endpoint: mean survival time, dose: 50.0 mg/kg/injection, schedule: Q01DX009 (ip), vehicle: saline with Tween-80
[9] = endpoint: mean survival time, dose: 100.0 mg/kg/injection, schedule: Q01DX009 (ip), vehicle: saline with Tween-80
[10] = endpoint: mean survival time, dose: 200.0 mg/kg/injection, schedule: Q01DX009 (ip), vehicle: saline with Tween-80
[11] = endpoint: mean survival time, dose: 100.0 mg/kg/injection, schedule: Q01DX001 (ip), vehicle: saline with Tween-80
[12] = endpoint: mean survival time, dose: 200.0 mg/kg/injection, schedule: Q01DX001 (ip), vehicle: saline with Tween-80
[13] = endpoint: mean survival time, dose: 400.0 mg/kg/injection, schedule: Q04DX003 (ip), vehicle: saline
[14] = endpoint: mean survival time, dose: 400.0 mg/kg/injection, schedule: Q01DX009 (ip), vehicle: saline with Tween-80
[15] = endpoint: mean survival time, dose: 100.0 mg/kg/injection, schedule: Q01DX001 (ip), vehicle: saline

Measured: T/C

O=C(O)CCCc1cc(O)c2c(c1O)C(=O)c1ccccc1C2=O
inactive: [1] 120 % of control | [2] 104 % of control | [3] 101 % of control

C=COC(=O)NC(CC(C)C)C(=O)O (centres undefined)
inactive: endpoint: mean survival time, dose: 75.0 mg/kg/injection, schedule: Q01DX001 (ip), vehicle: saline 103 % of control | endpoint: mean survival time, dose: 150.0 mg/kg/injection, schedule: Q01DX001 (ip), vehicle: saline 101 % of control

O=C(C#Cc1ccccc1)c1ccccc1
inactive: endpoint: mean survival time, dose: 3.12 mg/kg/injection, schedule: Q01DX009 (ip), vehicle: Klucel (hydroxypropylcellulose) (HPC) 86 % of control and 98 % of control | [4] 92 % of control and 97 % of control | [5] 92 % of control and 104 % of control | [6] 86 % of control and 107 % of control | [7] 89 % of control

COc1ccc(-c2c(O)c3c(OC)cc(OC)cc3oc2=O)cc1
inactive: [8] 100 % of control | [9] 93 % of control | [10] 103 % of control

O=C(O)c1cc2c([nH]1)=C(O)NN(O)C=2
inactive: endpoint: mean survival time, dose: 12.5 mg/kg/injection, schedule: Q04DX002 (ip), vehicle: saline with Tween-80 101 % of control | endpoint: mean survival time, dose: 25.0 mg/kg/injection, schedule: Q04DX002 (ip), vehicle: saline with Tween-80 101 % of control | endpoint: mean survival time, dose: 50.0 mg/kg/injection, schedule: Q04DX002 (ip), vehicle: saline with Tween-80 111 % of control

CC(=O)[O][Pb]([O]C(C)=O)([c]1ccccc1)[c]1ccccc1
inactive: [4] 89 % of control and 97 % of control | [5] 87 % of control and 100 % of control | [6] 96 % of control | [7] 90 % of control and 95 % of control | endpoint: mean survival time, dose: 100.0 mg/kg/injection, schedule: Q01DX009 (ip), vehicle: Klucel (hydroxypropylcellulose) (HPC) 92 % of control and 97 % of control | endpoint: mean survival time, dose: 200.0 mg/kg/injection, schedule: Q01DX009 (ip), vehicle: Klucel (hydroxypropylcellulose) (HPC) 96 % of control

CCS(=O)(=O)C(C)S(=O)(=O)CC
inactive: [11] 100 % of control | [12] 107 % of control | endpoint: mean survival time, dose: 400.0 mg/kg/injection, schedule: Q01DX001 (ip), vehicle: saline with Tween-80 104 % of control

CC(=O)Nc1cc(Cl)c2ncn(C3OC(CO)C(O)C3O)c2n1 (centres undefined)
inactive: endpoint: mean survival time, dose: 12.5 mg/kg/injection, schedule: Q01DX005 (ip), vehicle: water 102 % of control | endpoint: mean survival time, dose: 25.0 mg/kg/injection, schedule: Q01DX005 (ip), vehicle: water 95 % of control | endpoint: mean survival time, dose: 50.0 mg/kg/injection, schedule: Q01DX005 (ip), vehicle: water 102 % of control | endpoint: mean survival time, dose: 100.0 mg/kg/injection, schedule: Q01DX005 (ip), vehicle: water 91 % of control | endpoint: mean survival time, dose: 200.0 mg/kg/injection, schedule: Q01DX005 (ip), vehicle: water 101 % of control

C[N+](C)(CC(=O)Nc1cccc(C(F)(F)F)c1)CC(=O)Nc1cccc(C(F)(F)F)c1
inactive: endpoint: mean survival time, dose: 25.0 mg/kg/injection, schedule: Q04DX003 (ip), vehicle: saline with Tween-80 100 % of control | [1] 88 % of control

O=C(CN1CC1)NCCCCCCCCCNC(=O)CN1CC1
inactive: endpoint: mean survival time, dose: 22.0 mg/kg/injection, schedule: Q01DX001 (ip), vehicle: carboxymethylcellulose (CMC) 113 % of control | endpoint: mean survival time, dose: 33.0 mg/kg/injection, schedule: Q01DX001 (ip), vehicle: carboxymethylcellulose (CMC) 117 % of control

CCCCCCCCCC1=NC(C)(C)CN1CC(C)O (centres undefined)
inactive: endpoint: mean survival time, dose: 5.0 mg/kg/injection, schedule: Q01DX009 (ip), vehicle: saline with Tween-80 91 % of control | endpoint: mean survival time, dose: 10.0 mg/kg/injection, schedule: Q01DX009 (ip), vehicle: saline with Tween-80 102 % of control | endpoint: mean survival time, dose: 20.0 mg/kg/injection, schedule: Q01DX009 (ip), vehicle: saline with Tween-80 91 % of control

CCCCOC(=O)C1(N)CCCC1
inactive: endpoint: mean survival time, dose: 100.0 mg/kg/injection, schedule: Q04DX003 (ip), vehicle: saline 110 % of control | [13] 102 % of control

[CH3][Pb]([CH3])([CH3])[NH]C#N
inactive: endpoint: mean survival time, dose: 2.5 mg/kg/injection, schedule: Q01DX009 (ip), vehicle: saline 98 % of control | endpoint: mean survival time, dose: 5.0 mg/kg/injection, schedule: Q01DX009 (ip), vehicle: saline 87 % of control

CC(C)(c1ccc(O)cc1)c1ccc(O)cc1
inactive: [9] 102 % of control | [10] 104 % of control | [14] 100 % of control

Cn1c2c(c3ccccc31)CCCC2=O
inactive: [15] 106 % of control | endpoint: mean survival time, dose: 200.0 mg/kg/injection, schedule: Q01DX001 (ip), vehicle: saline 97 % of control | endpoint: mean survival time, dose: 400.0 mg/kg/injection, schedule: Q01DX001 (ip), vehicle: saline 93 % of control

COc1cc(OC)c2c(c1Cl)OC(C(C)=O)C2=O (centres undefined)
inactive: [8] 97 % of control | [9] 102 % of control | [2] 93 % of control | [10] 96 % of control | [3] 102 % of control

O=C(CCBr)NCNC(=O)CCBr
inactive: [14] 101 % of control
active: [10] 152 % of control

COc1ccc(/C=C2\OC(=O)C(Cc3cc(Cl)c4c(c3)OCO4)C2(O)C(C)C)cc1 (centres undefined)
inactive: endpoint: median survival time, dose: 6.13 mg/kg/injection, schedule: Q01DX005 (ip), vehicle: Klucel (hydroxypropylcellulose) (HPC) 95 % of control | endpoint: median survival time, dose: 12.25 mg/kg/injection, schedule: Q01DX005 (ip), vehicle: Klucel (hydroxypropylcellulose) (HPC) 96 % of control | endpoint: median survival time, dose: 24.5 mg/kg/injection, schedule: Q01DX005 (ip), vehicle: Klucel (hydroxypropylcellulose) (HPC) 103 % of control | endpoint: median survival time, dose: 49.0 mg/kg/injection, schedule: Q01DX005 (ip), vehicle: Klucel (hydroxypropylcellulose) (HPC) 91 % of control

O=C(O)O.O=C(O)O.O=C(O)O.[Co]
inactive: [15] 102 % of control | [13] 97 % of control

ClCCCN1CCN(CCCl)CC1
inactive: endpoint: median survival time, dose: 2.5 mg/kg/injection, schedule: Q01DX009 (ip), vehicle: saline 113 % of control and 115 % of control | endpoint: median survival time, dose: 20.0 mg/kg/injection, schedule: Q01DX009 (ip), vehicle: saline 109 % of control | endpoint: median survival time, dose: 40.0 mg/kg/injection, schedule: Q01DX009 (ip), vehicle: saline 88 % of control and 90 % of control
active: endpoint: median survival time, dose: 10.0 mg/kg/injection, schedule: Q01DX009 (ip), vehicle: saline 155 % of control and 177 % of control and 209 % of control

CCC(=O)C(C)(C)c1ccccc1 (tested in a mixture with another compound)
inactive: [11] 110 % of control | [12] 98 % of control

N=C(N)c1ccc(Nc2ccc(C(=N)N)cc2)cc1
inactive: endpoint: mean survival time, dose: 3.0 mg/kg/injection, schedule: Q01DX009 (ip), vehicle: saline 96 % of control and 100 % of control | endpoint: mean survival time, dose: 6.0 mg/kg/injection, schedule: Q01DX009 (ip), vehicle: saline 100 % of control and 101 % of control | endpoint: mean survival time, dose: 12.0 mg/kg/injection, schedule: Q01DX009 (ip), vehicle: saline 93 % of control and 95 % of control | endpoint: mean survival time, dose: 24.0 mg/kg/injection, schedule: Q01DX009 (ip), vehicle: saline 98 % of control

CC1(C)CN1P(=S)(N1CC1(C)C)N1CC1(C)C (centres undefined)
active: endpoint: mean survival time, dose: 338.0 mg/kg/injection, schedule: Q01DX001 (ip), vehicle: other 190 % of control and 277 % of control

NNC(=S)S
inactive: endpoint: mean survival time, dose: 5.0 mg/kg/injection, schedule: Q01DX001 (ip), vehicle: saline 96 % of control | endpoint: mean survival time, dose: 10.0 mg/kg/injection, schedule: Q01DX001 (ip), vehicle: saline 98 % of control

Cc1cc(O)c(C(C)C)cc1N(C)C (tested in a mixture with another compound)
inactive: endpoint: mean survival time, dose: 0.13 mg/kg/injection, schedule: Q01DX009 (ip), vehicle: saline 100 % of control | endpoint: mean survival time, dose: 0.25 mg/kg/injection, schedule: Q01DX009 (ip), vehicle: saline 106 % of control | endpoint: mean survival time, dose: 0.25 mg/kg/injection, schedule: Q04DX003 (ip), vehicle: saline 110 % of control | endpoint: mean survival time, dose: 0.5 mg/kg/injection, schedule: Q01DX001 (ip), vehicle: saline 97 % of control | endpoint: mean survival time, dose: 0.5 mg/kg/injection, schedule: Q01DX009 (ip), vehicle: saline 93 % of control | endpoint: mean survival time, dose: 0.5 mg/kg/injection, schedule: Q04DX003 (ip), vehicle: saline 87 % of control | endpoint: mean survival time, dose: 1.0 mg/kg/injection, schedule: Q01DX001 (ip), vehicle: saline 97 % of control

CC[CH2][Sn]([CH2]CC)([CH2]CCC#N)[O]C(C)=O
inactive: endpoint: mean survival time, dose: 0.09 mg/kg/injection, schedule: Q01DX009 (ip), vehicle: saline 97 % of control | endpoint: mean survival time, dose: 0.19 mg/kg/injection, schedule: Q01DX009 (ip), vehicle: saline 101 % of control | endpoint: mean survival time, dose: 0.39 mg/kg/injection, schedule: Q01DX009 (ip), vehicle: saline 100 % of control and 105 % of control | endpoint: mean survival time, dose: 1.56 mg/kg/injection, schedule: Q01DX009 (ip), vehicle: saline 103 % of control
